Data taken from PMC5400099, “5-Hydroxyethyl-3-tetradecanoyltetramic acid represents a novel treatment for intravascular catheter infections due to Staphylococcus aureus” (Journal of Antimicrobial Chemotherapy, 2016).
Converted amounts (≈) assume the structure as drawn. “And” between values parts separate entries of the source, which are not always exact repeats. Equal entries are not always repeated. Where two headings read alike, the source gives them in different places.

Assays:
S. aureus biofilms [1] = assay: Biofilm susceptibility, resazurin-conversion assay on plasma-coated wells; type: cell-based, Staphylococcus aureus; parameters: Reduction of MRSA biofilm viability: dose or concentration left out as unconfirmed; details: for Comparative anti-biofilm activity: MRSA and MSSA biofilms, compared with the other agents evaluated; for Reduction of biofilm viability: 512 and 1024 mg/L, 24 h treatment
Protocol: Biofilms were formed as previously described to mimic in vivo conditions that promote formation of coagulase-mediated biofilms.[16] Briefly, microtitre plates or glass-bottom culture dishes (MaTek Co., USA) were coated with either 20% (v/v) or 100% (v/v) human plasma, respectively, and inoculated with S. aureus at an OD600 ∼0.2. After 1 h, non-adherent bacteria were aspirated, replaced with fresh RPMI-1640 and biofilms allowed to form over 24 h at 37 °C. Pre-formed biofilms were treated for 24 h with either 5HE-C14-TMA, C14-TOA or C14-TTA or a positive control [ethanol at 40% (v/v)]. Biofilm viability was measured by (i) resazurin-conversion assay (in microtitre wells), or (ii) live/dead imaging (glass-bottom dishes). Conversion of the non-fluorescent redox dye, resazurin into the fluorescent resorufin was performed as described previously.[16] A 44 μM resazurin (Sigma-Aldrich, UK) solution in RPMI-1640 was added to an equal biofilm volume and incubated for 1 h at 37 °C. Fluorescence (excitation 544 nm, emission 590 nm) was quantified using a Perkin Elmer 2030 Multilabel Reader Victor^TM X3. Biofilms were stained with SYTO9 Green (at 13.36 μM) and propidium iodide (at 80 μM) (Molecular Probes®) for 1 h prior to washing. Four representative images at ×40 and ×100 were obtained per experimental group, per experiment using a Zeiss LSM 510 META confocal microscope. Each experiment was repeated at least three times. Fluorescence intensity was quantified using Image J1 software (http://imagej.net/Welcome).

S. aureus [2] = system: S. aureus; parameters: method as in PMID 24592914; details: cited from earlier work; for Effect on frequency and severity of arthritis: murine S. aureus arthritis model
S. aureus biofilms [3] = system: S. aureus biofilms; parameters: method as in PMID 19807189; details: cited from earlier work
S. aureus [4] = system: S. aureus; parameters: method as in PMID 15623555, PMID 19807189; details: sub-growth inhibitory concentrations; cited from earlier work
S. aureus strain USA300 = assay: MIC by broth microdilution (CLSI), strain USA300; type: cell-based; details: Staphylococcus aureus; USA300 (MRSA), Mueller–Hinton broth
Protocol: (§1) Community-acquired MRSA (CA-MRSA) strain USA300, its isogenic agr mutant,[17] the hospital-acquired MRSA (HA-MRSA) strain BH1CC,[18] the HA-MSSA strain BH48[19] and the MSSA strain SH1000[20] were cultured in Mueller–Hinton broth for susceptibility testing or in RPMI-1640 (Gibco) for biofilm formation. For the rat jugular vein catheter infection model, the S. aureus strain USA300 (LAC) lux[21] was used.
(§2) 5HE-C14-TMA and C14-TOA were synthesized as described previously[9] and C14-TTA as described in the Supplementary data available at JAC Online. Stock solutions of the compounds in DMSO at 10–50 mM were further diluted into tissue culture media or sodium chloride for the in vivo experiments. A DMSO solvent control was used in all in vitro experiments. The following antibiotics were used: vancomycin (Vancocin; Flynn Pharma Ltd., Republic of Ireland), daptomycin (Cubicin; Novartis, UK), gentamicin (Hospira, UK) and tigecycline (Tygacil; Pfizer Inc.). MICs were determined by broth microdilution in Mueller–Hinton broth, as recommended by the CLSI.

S. aureus strain BH1CC = assay: MIC by broth microdilution (CLSI), strain BH1CC; type: cell-based; details: Staphylococcus aureus; BH1CC (MRSA), Mueller–Hinton broth
Protocol: as §1, §2

S. aureus strain SH1000 = assay: MIC by broth microdilution (CLSI), strain SH1000; type: cell-based; details: Staphylococcus aureus; SH1000 (MSSA), Mueller–Hinton broth
Protocol: as §1, §2

S. aureus strain BH48 = assay: MIC by broth microdilution (CLSI), strain BH48; type: cell-based; details: Staphylococcus aureus; BH48 (MSSA), Mueller–Hinton broth
Protocol: as §1, §2

[5] = system: MRSA (USA300 JE2 and BH1CC) and MSSA (SH1000 and BH48) strains; assay: MIC by broth microdilution, MRSA and MSSA strains; type: cell-based, Staphylococcus aureus; details: MRSA and MSSA strains investigated
Protocol: as §1, §2

[6] = MTT cell viability assay, HaCaT; type: cell-based, Human; details: human, HaCaT keratinocyte cells; HaCaT, MTT, 24 h
Protocol: (§3) Human keratinocyte (HaCaT) cells were cultured in DMEM supplemented with 10% (v/v) FBS. Primary human umbilical vein endothelial cells (HUVECs) were cultured in EGM™-2 Bulletkit (Lonza) medium. HaCaT and HUVECs were harvested using TrypLE^TM Express (Gibco). Cells were seeded in microtitre plates at 3 × 10^5 cells/mL and incubated for 24 h at 37 °C with an antimicrobial compound ([…]) or Triton X100 at 1% (v/v). After removing the medium, cells were incubated with 500 mg/L MTT (Sigma-Aldrich) for 4 h. The crystals formed were solubilized with DMSO. Absorbance was recorded at 560 nm and the CC50 was determined.

[7] = system: Human keratinocyte (HaCaT) cells; assay: MTT cell viability assay, HaCaT; type: cell-based; details: HaCaT cells
Protocol: as §3

[8] = MTT cell viability assay, HUVEC; type: cell-based, human; details: human, primary HUVECs (umbilical vein endothelial cells); HUVEC, MTT, 24 h
Protocol: as §3

[9] = system: Primary human umbilical vein endothelial cells (HUVECs); assay: MTT cell viability assay, HUVEC; type: cell-based; details: HUVECs
Protocol: as §3

Haemolysis assay = type: cell-based; details: red blood cells; human RBC; read-out: CC50 (haemolytic activity)
Protocol: Human blood containing EDTA (1.6 g/L) was centrifuged at 1000 g for 5 min. Red blood cells (RBC) were washed twice with PBS, diluted 2-fold and incubated with compounds or Triton X100 (positive control) at 0.5% (v/v). A570 was determined to quantify haemolysis. IC50s were derived from the corresponding dose–response curves.

Iron chelation = type: physicochemical; details: data not shown
S. aureus [10] = details: cited from earlier work
[11] = system: agr quorum sensing system; parameters: method as in PMID 24592914; details: S. aureus; cited from earlier work
staphylococcal membrane = system: staphylococcal membrane; parameters: method as in PMID 24592914; details: binding to the staphylococcal membrane, single site model; cited from earlier work
S. aureus USA300 LAC = assay: Bactericidal activity (time-kill, viable counts); type: cell-based, Staphylococcus aureus; details: 8 × MIC, planktonic USA300
Protocol: S. aureus USA300 LAC was grown overnight in LB medium, diluted 250-fold and grown to an OD600 0.5. Cells were diluted to 1 × 10^6 per mL in challenge medium (LB plus 5HE-C14-TMA, C14-TOA or C14-TTA at 8 × MIC). Samples were removed and viable counts determined at 30 min intervals for the first hour followed by hourly sampling. The CLSI defines a compound as bactericidal if it reduces the starting inoculum colony count by at least 99.9% (3-logs).

[12] = system: S. aureus strain USA300 LAC; assay: Membrane permeabilization: ATP release; type: cell-based, Staphylococcus aureus; details: 0-100 μM, 1 h
Protocol: (§4) Membrane permeabilization was evaluated by quantifying (i) ATP release,[22] and (ii) the uptake of propidium iodide.[22]S. aureus strain USA300 LAC was grown overnight in CYGP medium,[9] washed with sodium phosphate buffer (100 mM, pH 7), re-suspended to OD600 0.1 and incubated at 37 °C with a range of concentrations of each compound for 1 h. Nisin (0.6 μM) was used as a positive control. Cell-free supernatants were assayed for ATP using the Cell Titre-Glo kit (Promega). Staphylococcal cells were re-suspended in 100 mM sodium phosphate buffer (pH 7) containing propidium iodide (10 mg/L), incubated in the dark at room temperature for 10 min. After washing, propidium iodide fluorescence (excitation: 575 nm; emission 630 nm) was determined.

[13] = system: S. aureus strain USA300 LAC; assay: Membrane permeabilization: propidium iodide uptake; type: cell-based, Staphylococcus aureus; details: 0-100 μM, 1 h
Protocol: as §4

SMILES: CCCCCCCCCC(=O)N[C@@H](Cc1c[nH]c2ccccc12)C(=O)N[C@H](CC(N)=O)C(=O)N[C@@H](CC(=O)O)C(=O)N[C@@H]1C(=O)NCC(=O)N[C@@H](CCCN)C(=O)N[C@@H](CC(=O)O)C(=O)N[C@H](C)C(=O)N[C@@H](CC(=O)O)C(=O)NCC(=O)N[C@H](CO)C(=O)N[C@@H]([C@H](C)CC(=O)O)C(=O)N[C@@H](CC(=O)c2ccccc2N)C(=O)O[C@@H]1C [daptomycin, reference compound]
- Comparative anti-biofilm activity (S. aureus biofilms [1]): most active antimicrobial evaluated

SMILES: CN[C@H](CC(C)C)C(=O)N[C@H]1C(=O)N[C@@H](CC(N)=O)C(=O)N[C@H]2C(=O)N[C@H]3C(=O)N[C@H](C(=O)N[C@H](C(=O)O)c4cc(O)cc(O)c4-c4cc3ccc4O)[C@H](O)c3ccc(c(Cl)c3)Oc3cc2cc(c3O[C@@H]2O[C@H](CO)[C@@H](O)[C@H](O)[C@H]2O[C@H]2C[C@](C)(N)[C@H](O)[C@H](C)O2)Oc2ccc(cc2Cl)[C@H]1O [vancomycin, reference compound]
- Reduction of MRSA biofilm viability (S. aureus biofilms [1]; MRSA biofilm, resazurin): 3.5–4 fold

SMILES: CCCCCCCCCC(=O)C1C(=O)NC(CCO)C1=O (centres unmarked) [5HE-C10-TMA, 5-hydroxyethyl-3-decanoyltetramic acid]
- Toxicity in murine arthritis model (S. aureus [2]): neither C14-TOA nor 5HE-C10-TMA were toxic
- Effect on frequency and severity of arthritis (S. aureus [2]): inactive
- Activity against S. aureus biofilms (S. aureus biofilms [3]; at 200 mg/L): inactive
- Efficacy against S. aureus biofilms (S. aureus biofilms [3]): no efficacy
- Selection for resistance on serial passage (S. aureus [4]): did not select for resistance

SMILES: CCCCCCCCCCCCCC(=O)C1=C(O)OCC1=O [C14-TOA, 3-tetradecanoyltetronic acid]
- MIC (S. aureus strain USA300): 12.5 µM and 4 µg/mL
- MIC (S. aureus strain BH1CC): 12.5 µM and 4 µg/mL
- MIC (S. aureus strain SH1000): 12.5 µM and 4 µg/mL
- MIC (S. aureus strain BH48): 12.5 µM and 4 µg/mL
- MIC [5]: 4 µg/mL (≈ 12.9 µM)
- MIC ([5]; Staphylococcus aureus): 2 to 4 µg/mL (≈ 6.44 to 12.9 µM)
- Reduction of biofilm viability (S. aureus biofilms [1]; resazurin): 2.5–3 fold
- Comparative anti-biofilm activity (S. aureus biofilms [1]): far less effective
- CC50 at 24 h [6]: 257 µM and 80 µg/mL
- Selectivity index (SI, CC50/MIC) [7]: 20
- CC50 at 24 h [8]: 28 µM and 9 µg/mL
- Selectivity index (SI, CC50/MIC) [9]: 2.3
- CC50 (Haemolysis assay): > 2.05 mM and > 667 µg/mL
- Iron chelation (Iron chelation): do not chelate iron
- MIC (S. aureus [10]; towards S. aureus): 25 µM (≈ 7.76 µg/mL)
- IC50 [11]: 3 µM
- Kd (staphylococcal membrane): 2 µM
- Toxicity in murine arthritis model (S. aureus [2]): neither C14-TOA nor 5HE-C10-TMA were toxic
- Effect on frequency and severity of arthritis (S. aureus [2]): significantly reduced the frequency and severity of arthritis and joint destruction
- Numbers of viable staphylococci in the kidneys (S. aureus [2]; murine S. aureus infection model): did not, however, reduce

SMILES: CCCCCCCCCC(=O)C1C(=O)CNC1=O (centres unmarked) [C10-TMA, reference compound]
- Antibacterial activity after removal of the 5-hydroxyethyl moiety of 5HE-C10-TMA (S. aureus [10]): did not reduce antibacterial activity

SMILES: CCCCCCCCCCCCCC(=O)C1=C(O)SCC1=O [C14-TTA, 3-tetradecanoylthiotetronic acid]
- MIC (S. aureus strain USA300): 12.5 µM and 4 µg/mL
- MIC (S. aureus strain BH1CC): 12.5 µM and 4 µg/mL
- MIC (S. aureus strain SH1000): 12.5 µM and 4 µg/mL
- MIC (S. aureus strain BH48): 12.5 µM and 4 µg/mL
- MIC [5]: 4 µg/mL (≈ 12.3 µM)
- MIC ([5]; Staphylococcus aureus): 2 to 4 µg/mL (≈ 6.13 to 12.3 µM)
- Bactericidal activity (CLSI: at least 3-log reduction) (S. aureus USA300 LAC): bactericidal
- Extracellular ATP levels (ATP release relative to nisin 0.6 μM) [12]: least active
- Propidium iodide fluorescence (uptake relative to nisin 0.6 μM) [13]: least active
- Reduction of biofilm viability (S. aureus biofilms [1]; resazurin): 2.5–3 fold
- Comparative anti-biofilm activity (S. aureus biofilms [1]): far less effective
- CC50 at 24 h [6]: 26 µM and 8.3 µg/mL
- Selectivity index (SI, CC50/MIC) [7]: 2
- CC50 (Haemolysis assay): 470 µM and 153 µg/mL
- Iron chelation (Iron chelation): do not chelate iron

SMILES: CCCCCCCCCC(=O)CC(=O)N[C@H]1CCOC1=O [3-oxo-C12-HSL, N-(3-oxododecanoyl)-L-homoserine lactone, reference compound]
- MIC (S. aureus [10]; S. aureus growth): 100 μM and 30 mg/L
